From ChEMBL document CHEMBL3044546, “Synthesis of inhibitors of imidazole glycerol phosphate dehydratase” (Bioorg Med Chem Lett, 1996)

tested on: not listed separately; assay: Inhibition of Saccharomyces cerevisiae imidazole glycerol-phosphate dehydratase expressed in Escherichia coli

Structure (SMILES) | IC50 [µM] | Ki [µM]
O=P(O)(O)CCC(O)c1nc[nH]n1 (centres undefined) | 0.13 | 0.04
O=C(O)C(CCC(O)c1nc[nH]n1)C(=O)O (centres undefined) | 6 | 
O=P(O)(O)CC(O)Cn1cncn1 (centres undefined) |  | 0.0006
O=P(O)(O)CCCCC(O)c1nc[nH]n1 (centres undefined) | 80 | 
O=P(O)(O)COCC(O)Cn1cncn1 (centres undefined) | < 1 | 
O=P(O)(O)COCCNc1nc[nH]n1 | 5 | 
O=C(O)C(CC(O)c1nc[nH]n1)C(=O)O (centres undefined) | > 500 | 
O=C(O)C(CCCC(O)c1nc[nH]n1)C(=O)O (centres undefined) | > 500 | 
O=C(O)C(OCCC(O)Cn1cncn1)C(=O)O (centres undefined) | 30 | 
O=C(O)C(OCC(O)Cn1cncn1)C(=O)O (centres undefined) | 100 | 
CNC(CC(O)CCP(=O)(O)O)c1nc[nH]n1 (centres undefined) | 10 | 
O=P(O)(O)CSCC(O)Cn1cncn1 (centres undefined) | 7 | 

tested on: Saccharomyces cerevisiae; assay: Inhibition of Saccharomyces cerevisiae imidazole glycerol-phosphate dehydratase expressed in Escherichia coli at 1 uM

Structure (SMILES) | inhibition [%]
O=P(O)(O)COCC(O)Cn1cncn1 (centres undefined) | 80
